Source: patent publication US12492337B2, “Fluorescent probe, preparation method therefor and use thereof” (FLUORESCENCE DIAGNOSIS (SHANGHAI) BIOTECH COMPANY, priority 2017, dated 2025)

Experiments:
[1] = system: fusion protein CX43-HaloTag; test: Tracing assembly of CX43-HaloTag intercellular channels in Hela cells (Example 94); assay type: cell-based; conditions: 2 μM probe, 1 hour, Hela-CX43-HaloTag cells
Excerpt: To verify that the probe can be used to monitor the assembly and degradation of biomacromolecules in mammalian cells in real time, Hela cells were used as an example to detect the process of tracing, by a probe, the assembly of intercellular protein CX43 to form intercellular channels in mammalian cells. The C-terminus of CX43 gene was fused with HaloTag gene, and a Hela cell line stably expressing the fusion protein CX43-HaloTag was constructed and obtained by lentiviral infection technology. Hela-CX43-HaloTag cell lines were implanted in a 20 mm glass-bottom cell culture dish 10 hours before the probe labeling. When labeling, the probe 61 μM was first diluted to 2 μM with phenol red-free DMEM medium and replaced the original cell culture medium. The cells were incubated in a 37° C. carbon dioxide incubator for 1 hour. Thereafter, the cells were washed twice with fresh phenol red-free DMEM medium, and the unbound probe 61 was removed at intervals of 2 min. Then, a DMEM phenol-free medium containing 1 μM probe 57 was added to label the cells, and a Leica SP8 confocal microscope was used to monitor the fluorescence intensity and position changes of labeled cells at the corresponding fluorescence channels of probe 61 and probe 57 for a long time, which are shown in FIGS. 17A and 17B, respectively. […]

HaloTag protein tag = test: Probe mixed with HaloTag protein tag, fluorescence spectrophotometer (Example 86); assay type: biochemical; conditions: 5 μM probe, 10 μM protein tag, 37° C., 1 hour; for Fluorescence enhancement: fluorescence activation multiple after binding protein tag; for Emission/nm: fluorescence emission wavelength
Procedure: (§1) A probe was mixed with a corresponding HaloTag protein tag to obtain a mixed sample. The final concentration of the probe in the mixed sample was 5 μM and the final concentration of the protein tag was 10 μM. The mixed sample was incubated at 37° C. for 1 hour, and the sample was detected using a fluorescence spectrophotometer.

[2] = Viscosity responsiveness: fluorescence intensity in glycerol versus methanol; assay type: physicochemical; conditions: fluorescence intensity in glycerol to that in methanol
Summary of the method: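 At 25 °C, with the same dye concentration and excitation wavelength, maximum emission intensity in glycerol was compared with intensity in methanol, giving a ratio. Dye concentrations ranged from 1×10^−7 M to 1×10^−5 M.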

[3] = Quantum yield of free probe not reacted with protein tag; assay type: physicochemical
Procedure: as §1

Hela-WT cells = test: Confocal imaging of Hela-WT cells without protein tag (Example 89); assay type: cell-based; conditions: 5 μM probe, 2 hours, 37° C., confocal microscope
Procedure: (§2) Hela cells are used as an example to test the labeling effect of compounds in mammalian cells. Hela cells and Hela-WT cells (Hela primitive cell, without a protein tag expressed) stably expressing HaloTag protein tags were planted in 14 mm 96-well glass bottom cell culture plates and stabilized for 10 hours. Probe 57, probe 59, probe 60, probe 61, probe 69, probe 75, probe 76, probe 82 were added to the culture medium and diluted to 5 μM, respectively. The cells were incubated in a 37° C. carbon dioxide incubator for 2 hours, and the fluorescence changes of the labeled cells were detected by imaging with a Leica TPS-8 confocal microscope.

[4] = system: HaloTag protein tags in different subcellular organelles of Hela cells; test: Labeling HaloTag protein tags in different subcellular organelles of Hela cells (Example 90); assay type: cell-based; conditions: 0.2 μM probe, 2 hours, no washing; cytoskeleton, mitochondria, nucleus, Golgi, whole cells, lysosomes
Procedure: In order to verify that probe 57, probe 59, probe 60, probe 61, probe 62, and probe 63 can be used to label target proteins located in different organelles. Hela cells were used as examples to detect the effect of probes on labeling HaloTag protein tags in different subcellular organelles. Hela cells were implanted 5000 cells per well in 96-well glass-bottom cell culture plates. After 14 hours, lipo2000 kit was used to transfect the plasmids localized by HaloTag protein tags in different organelles. The original culture medium was removed 24 hours after transfection, and the cells were washed twice with a phenol red-free DMEM medium, and incubated for 2 hours in a phenol red-free medium containing 0.2 μM probes, and the effect of cell labelling was detected by imaging using a Leica TCS-8 confocal microscope.

[5] = system: HaloTag-IAA17-H2B protein; test: Fluorescence change on IAA-induced degradation of HaloTag-IAA17-H2B in Hela cells (Example 93); assay type: cell-based; conditions: 1 μM probe, 1 hour labeling, then IAA-induced protein degradation
Procedure: In order to verify the correlation between the fluorescent activation of the probe and the presence of protein, the HaloTag protein in mammalian cells was taken as an example, and the AID degradation system in Hela cells was used as an example to detect the fluorescence changes of HaloTag protein binding probes after protein degradation. First, Hela cells were implanted 20,000/cm^2 in a 20 mm glass-bottomed cell culture dish. After 14 hours, pcdna3.1-TIR1 and pcdna3.1-HaloTag-IAA17-H2B plasmids were transfected with lipofectmain2000 transfection reagent from invirtogen. 24 hours after cell transfection, the original cell culture medium was replaced with a phenol red-free DMEM medium containing 1 μM probe 61 to label the cells, and the cell samples were incubated in a 37° C. carbon dioxide incubator for 1 hour. After the labeling was completed, the fluorescence signal of cell labels was detected by imaging using a Leica SP8 laser confocal microscope. Then, indole acetic acid (IAA) was added to induce the degradation of HaloTag-IAA17-H2B protein, and the changes in cell fluorescence during protein degradation were detected. […] When proteins are present, fluorescence is activated, and when proteins are degraded, fluorescence disappears, which can be used to track and monitor the degradation process of target proteins.

[6] = system: Hela cells stably expressing HaloTag protein tags; test: Confocal imaging of labeled Hela cells stably expressing HaloTag protein tags (Example 89); assay type: cell-based; conditions: Homo sapiens, 5 μM probe, 2 hours, 37° C., confocal microscope, read-out: fluorescence signal enhancement in Hela cells expressing the protein tag
Procedure: as §2

SNAP protein = test: Labeling speed and fluorescence intensity, purified SNAP protein, microplate reader (Example 95); assay type: biochemical
Procedure: To verify that the probe-labeled HaloTag protein tag has a faster labeling speed and higher fluorescence intensity than the probe-labeled SNAP protein tag, a probe 48-labeled HaloTag protein tag and a reference probe 85-labeled SNAP protein tag were taken as examples (probe 48 and reference probe 85 have the same fluorescent dye portion). When labeling, the purified HaloTag protein and SNAP protein were first diluted to 7.5 μM with PBS.
Probe 48 and reference probe 85 were diluted to 15 μM with PBS, and 20 μL of probe 48 was added to 80 μL of HaloTag protein and mixed, 20 μL of reference probe 85 was added to 80 μL of SNAP protein and mixed, and a microplate reader was used to monitor the changes in fluorescence intensity of the two solutions excited at 620 nm and emitted at 650 nm, which lasted for two hours.

Compound	fluorescent signal in the probe 61 fluorescence channel [1]	The quantum yield after binding to Halo-tag (HaloTag protein tag)	Fluorescence enhancement (HaloTag protein tag)	Emission/nm (HaloTag protein tag) [nm]	ratio [2]	The quantum yield of the free probe [3]	fluorescent signal in Hela-WT cells (Hela-WT cells)	effect of cell labelling of subcellular organelles [4]	fluorescence signal after indoleacetic acid added for 90 min [5]	fold induction at 5 µM [6]	labeling time of the SNAP protein tag labeled by the probe (SNAP protein; 20 μL 15 μM probe + 80 μL 7.5 μM protein in PBS, excited at 620 nm, emitted at 650 nm)	fluorescence intensity lower than the former (probe 48-labeled HaloTag) by (SNAP protein; same conditions as probe 48 with HaloTag protein) [time]
CN(C)c1cc2sc(/C=C(\C#N)C(=O)NCCOCCOCCCCCCCl)cc2s1 [Probe 61]	long column-shaped specific fluorescent signal between the two cells	0.59	668	552	817	0.0012	no corresponding fluorescent signal could be detected	clearly display a variety of subcellular organelle structures without washing	almost invisible	~200		
CN(CCOC(=O)NCc1ccc(COc2nc(N)nc3[nH]cnc23)cc1)c1cc2c(s1)-c1sc(/C=C(\C#N)C(=O)OC(C)(C)C)cc1C2(C)C [Reference Probe85, reference compound]		0.32	321	645	510	<0.001					about 7 min	≥ 1
